Test systems include OVCAR-8 ovarian; SF-268 CNS; SK-MEL-2 melanoma; SK-MEL-5 melanoma; SNB-75 CNS; COLO 205 colon; HL-60(TB) leukemia; KM12 colon; UACC-257 melanoma; SR leukemia.
Experiment in all cases: DTP human tumour cell line panel, 48 h

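Growth conditions: 96-well plates. Treatment: test compound, 48 hours, 5 concentrations. Analysis: linear interpolation between bracketing concentrations; unreached endpoints set to highest concentration. Here, GI50 denotes the concentration required for 50% inhibition of growth. TGI: total growth inhibition.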 Bounds are passed on as bounds.

Consider `Cc1cc(NCc2cc(Nc3ccnc4cc(Cl)ccc34)ccc2F)nc(N2CCSCC2)n1`, for which the GI50 – broadly, the concentration giving 50% growth inhibition – in the experiment with OVCAR-8 ovarian was 2540 nM; with SF-268 CNS, 1900 nM; with SK-MEL-2 melanoma it was 2150 nM; with SK-MEL-5 melanoma, 1530 nM; in the experiment on SNB-75 CNS, 1320 nM. In addition, the TGI (commonly the concentration at which net growth stops) in the experiment on OVCAR-8 ovarian was 9.23 µM; with SF-268 CNS it was 5.27 µM; in the experiment on SK-MEL-2 melanoma, 4.71 µM; in the experiment with SK-MEL-5 melanoma, 2.94 µM; with SNB-75 CNS, 2.9 µM.
For `CC(O)C(NC(=O)c1ccccc1)C(=O)N(Cc1ccccc1)Cc1ccccc1` (stereo unspecified), the TGI with COLO 205 colon, in the experiment on HL-60(TB) leukemia, in the experiment with KM12 colon, in the experiment on OVCAR-8 ovarian, in the experiment on SF-268 CNS and in the experiment on SK-MEL-2 melanoma was greater than 100 µM throughout. The TGI in the experiment with SK-MEL-5 melanoma, in the experiment on SNB-75 CNS and with UACC-257 melanoma was greater than 100 µM in each case.
Regarding `CNc1ccc([N+](=O)[O-])c2c(NCCCN(C)C)ccnc12`, the TGI with COLO 205 colon, in the experiment with HL-60(TB) leukemia, with KM12 colon, in the experiment with OVCAR-8 ovarian, with SF-268 CNS and with SK-MEL-2 melanoma was greater than 100 µM in each case. Besides, the TGI in the experiment on SR leukemia and in the experiment with UACC-257 melanoma was greater than 100 µM throughout.
Turning to `C=C(C)[C@@H]1CC[C@]2(C(=O)O)CC[C@]3(C)[C@H](CC[C@@H]4[C@@]5(C)C/C(=C/c6cccc(I)c6)C(=O)C(C)(C)[C@@H]5CC[C@]43C)[C@@H]12`, the GI50 was 2600 nM in the experiment with HL-60(TB) leukemia; 1.59 µM in the experiment with KM12 colon; 2870 nM in the experiment with OVCAR-8 ovarian; 3170 nM in the experiment with SF-268 CNS; 2400 nM with SK-MEL-2 melanoma; 1800 nM in the experiment on SK-MEL-5 melanoma. Besides, the values for the GI50 in the experiment with SR leukemia and in the experiment on UACC-257 melanoma were 2710 nM and 2510 nM, respectively. The TGI in the experiment on HL-60(TB) leukemia came to 8.58 µM; in the experiment with KM12 colon, 3.6 µM; in the experiment with OVCAR-8 ovarian, 14.3 µM; in the experiment on SF-268 CNS, 15.1 µM; with SK-MEL-2 melanoma it was 6.94 µM; in the experiment with SK-MEL-5 melanoma, 3.44 µM. For the same molecule, the TGI was 12.5 µM with SR leukemia and 8.23 µM in the experiment with UACC-257 melanoma.
Regarding `CCOC(=O)c1ccc(N(C=O)CCC(=O)CCl)cc1`, the GI50 in the experiment on COLO 205 colon was 315 nM; in the experiment on HL-60(TB) leukemia, 43.8 nM; in the experiment on KM12 colon, 0.4 µM; in the experiment on OVCAR-8 ovarian, 99.8 nM; in the experiment with SF-268 CNS it was 411 nM; in the experiment with SK-MEL-2 melanoma, 465 nM. In addition, the values for the GI50 in the experiment with SK-MEL-5 melanoma, with SNB-75 CNS and in the experiment with UACC-257 melanoma were 344 nM, 997 nM and 1500 nM, respectively. For the same molecule, the TGI in the experiment on COLO 205 colon was found to be 0.838 µM; with HL-60(TB) leukemia, 0.351 µM; in the experiment on KM12 colon, 15.4 µM; with OVCAR-8 ovarian, 11.3 µM; in the experiment with SF-268 CNS it was 4.95 µM; in the experiment with SK-MEL-2 melanoma, 2.14 µM. Moreover, the TGI in the experiment on SK-MEL-5 melanoma came out at 1.55 µM; in the experiment with SNB-75 CNS it was 13.6 µM; with UACC-257 melanoma, 8.33 µM.
For the molecule `COc1ccc2c(c1)C(=O)c1c-2c(N2CCN(C(=O)CNCCN(C)C)CC2)nc2ccccc12`, the GI50 in the experiment with COLO 205 colon is 1650 nM; with HL-60(TB) leukemia, 2400 nM; in the experiment on KM12 colon, 1.83 µM; in the experiment on OVCAR-8 ovarian it was 3900 nM; in the experiment with SF-268 CNS it was 2280 nM; in the experiment on SK-MEL-2 melanoma, 2070 nM. For the same molecule, the GI50 in the experiment with SK-MEL-5 melanoma was 4490 nM; with UACC-257 melanoma, 1950 nM. Also, the total growth inhibition concentration (TGI) in the experiment on COLO 205 colon came out at 3.2 µM; with HL-60(TB) leukemia, 6.31 µM; in the experiment on KM12 colon it was 4.38 µM; in the experiment with OVCAR-8 ovarian it was 17.5 µM; in the experiment on SF-268 CNS it was 6 µM; with SK-MEL-2 melanoma, 3.83 µM. Further, the TGI with SK-MEL-5 melanoma worked out at 16.7 µM; in the experiment with UACC-257 melanoma it was 3.7 µM.
`NC(CCc1ncc(-c2ccccc2)s1)C(=O)O` (stereo unspecified): the TGI in the experiment on COLO 205 colon, in the experiment on HL-60(TB) leukemia, in the experiment with KM12 colon, in the experiment on OVCAR-8 ovarian, in the experiment on SK-MEL-5 melanoma and in the experiment with SNB-75 CNS was greater than 100 µM throughout. This molecule also gave a TGI with UACC-257 melanoma greater than 100 µM.
On to `CC(C)=CC(=O)N[C@@H]1CC2CCC3C(CC[C@@]4(C)C3CC[C@@H]4C(C)N(C)C)[C@@]2(C)C[C@@H]1O` (stereo partly specified), for which the GI50 with COLO 205 colon was 1790 nM; with HL-60(TB) leukemia, 1610 nM; in the experiment with KM12 colon it was 4.41 µM; in the experiment with OVCAR-8 ovarian, 12800 nM; in the experiment with SF-268 CNS, 2710 nM; with SK-MEL-2 melanoma, 14400 nM. The values for the GI50 in the experiment on SK-MEL-5 melanoma, in the experiment on SNB-75 CNS and with UACC-257 melanoma were 1570 nM, 5970 nM and 3530 nM, respectively. Besides, the TGI was 3.71 µM with COLO 205 colon; 6.14 µM in the experiment with HL-60(TB) leukemia; 30.1 µM with KM12 colon; greater than 53.2 µM in the experiment with OVCAR-8 ovarian; 12.2 µM in the experiment on SF-268 CNS; 38.2 µM in the experiment on SK-MEL-2 melanoma. For the same molecule, the TGI turned out to be 4.17 µM in the experiment on SK-MEL-5 melanoma, 23.3 µM in the experiment on SNB-75 CNS and 11.2 µM with UACC-257 melanoma.
For the molecule `Fc1cccc(Cl)c1Cn1c(-c2c(F)cccc2Cl)nc2ccccc21`, the GI50 in the experiment with COLO 205 colon was 17500 nM; with HL-60(TB) leukemia, 3860 nM; in the experiment with KM12 colon, 14.6 µM; in the experiment on OVCAR-8 ovarian it was 17300 nM; in the experiment with SF-268 CNS, 15000 nM; in the experiment with SK-MEL-5 melanoma, 11600 nM. For the same molecule, the GI50 with SNB-75 CNS is 22100 nM; in the experiment on UACC-257 melanoma, 12900 nM. In addition, the TGI in the experiment on COLO 205 colon is greater than 100 µM; with HL-60(TB) leukemia, 74.6 µM; in the experiment on KM12 colon, 42.4 µM; with OVCAR-8 ovarian, 37.8 µM; in the experiment with SF-268 CNS it was 32.6 µM; with SK-MEL-5 melanoma, 29.8 µM. The TGI with SNB-75 CNS came out at 69.3 µM; in the experiment on UACC-257 melanoma, 28.6 µM.
With `O=C(c1nn(-c2ccc(Cl)cc2)cc1O)n1nc(C(F)(F)F)cc1-c1ccccc1`, the GI50 in the experiment with COLO 205 colon is 2970 nM; in the experiment with HL-60(TB) leukemia it was 2420 nM; in the experiment with KM12 colon, 5.09 µM; in the experiment with OVCAR-8 ovarian, 1870 nM; with SF-268 CNS it was 1800 nM; in the experiment with SK-MEL-2 melanoma, 38200 nM. Further, the GI50 is 2070 nM in the experiment on SK-MEL-5 melanoma, 816 nM in the experiment on SNB-75 CNS and 2250 nM in the experiment with UACC-257 melanoma. Also, the TGI with COLO 205 colon was greater than 44.2 µM; in the experiment on HL-60(TB) leukemia it was greater than 100 µM; in the experiment with KM12 colon, greater than 100 µM; with OVCAR-8 ovarian, greater than 100 µM; in the experiment with SF-268 CNS, greater than 100 µM; in the experiment with SK-MEL-2 melanoma, greater than 100 µM. Also, the TGI is 16.7 µM in the experiment with SK-MEL-5 melanoma, greater than 100 µM in the experiment with SNB-75 CNS and 18.2 µM in the experiment with UACC-257 melanoma.

Values taken from PubChem BioAssay (NCI).
